Assay results taken from PMC1891437, “Hexose-6-phosphate Dehydrogenase Modulates 11β-Hydroxysteroid Dehydrogenase Type 1-Dependent Metabolism of 7-keto- and 7β-hydroxy-neurosteroids” (PLoS ONE, 2007).

Experiments:
11β-HSD1 [1] = target: T1, 11β-HSD1 (Homo sapiens, UniProt P28845); experiment: 11β-HSD1 dehydrogenase activity (oxidation of cortisol) in lysates of HEK-293 cells expressing recombinant enzyme, competition by 7-oxygenated neurosteroids; type: biochemical; details: HEK-293 lysates; 50 nM [3H]-cortisol, 500 µM cofactor NAD+; mean±S.D., four experiments
T1 construct: expressed in transfected cells; host or cells: HEK-293 (transient, Ca2+-phosphate precipitation)
Procedure: (§1) HEK-293 cells were cultured in Dulbecco's Modified Eagle's Medium (DMEM) supplemented with 10% fetal calf serum (FCS), 50 units/ml penicillin, 50 µg/ml streptomycin and 2 mM glutamine. Cells were transfected with expression plasmids for FLAG-tagged 11β-HSD1 and myc-tagged H6PDH or pcDNA3.1 control using the Ca^2+-phosphate precipitation method. The epitope tags had no effect on enzymatic activities or expression levels of 11β-HSD1 and H6PDH [10], [49]. A total amount of 8 µg DNA was used per 10 cm culture dish or 2 µg DNA per well of a six-well culture plate.
(§2) The enzyme activity in intact cells was measured as described. Briefly, HEK-293 cells, grown in 10 cm culture dishes and transfected with FLAG-tagged 11β-HSD1 alone or co-transfected with myc-tagged H6PDH, were detached 24 h post-transfection and distributed in 96-well plates at a density of 30′000–40′000 cells per well. After 16 h, cells were incubated in serum- and steroid-free medium and the conversion of radiolabeled cortisone to cortisol (or the reverse activity) was determined upon incubation for 1 h at 37°C in a total volume of 50 µl containing 200 nM cortisone (or cortisol). The reaction was stopped by adding methanol containing 2 mM unlabeled cortisone and cortisol, followed by separation of steroids by TLC and scintillation counting. Measurements with freshly prepared cell lysates were carried out in the presence of [1,2,6,7-^3H]-cortisone and cofactor NADPH at final concentrations of 200 nM and 500 µM for the reductase reaction and with 50 nM [1,2,6,7-^3H]-cortisol and 500 µM cofactor NAD^+ for the dehydrogenase reaction, respectively, in the absence or presence of various concentrations of competing 7-oxygenated neurosteroid ligands. The concentration of dimethylsulfoxide or methanol from the solvent was 0.1% in all reactions and had no effect on enzyme activity. Data (mean±SD) were obtained from four independent experiments and were calculated using the Data Analysis Toolbox (Elsevier MDL, Allschwil, Switzerland).

11β-HSD1 [2] = target: T1, 11β-HSD1; experiment: 11β-HSD1 reductase activity (reduction of cortisone) in lysates of HEK-293 cells expressing recombinant enzyme, competition by 7-oxygenated neurosteroids; type: biochemical; details: HEK-293 lysates; 200 nM [3H]-cortisone, 500 µM NADPH; mean±S.D., four experiments
Procedure: as §1, §2

11β-HSD1 [3] = target: T1, 11β-HSD1; experiment: 7-keto-steroid reductase and 7-hydroxy-steroid dehydrogenase activity in intact transfected HEK-293 cells (GC-MS); type: cell-based; details: 1 µM inhibitor, intact HEK-293 cells
Procedure: as §1
HEK-293 cells were seeded in six-well plates at a density of 900′000 cells per well. After 24 h, cells were transfected with expression vector for 11β-HSD1 or co-transfected with vectors for 11β-HSD1 and H6PDH. An empty pcDNA3.1 plasmid was used in transfections lacking H6PDH to adjust total DNA amounts in all samples. The medium was replaced 18 h post-transfection by steroid-free medium followed by addition of 1 µM of the steroid substrate to be tested. […] After incubation for various time intervals, reactions were terminated by addition of an equal volume of dichloromethane, containing 500 ng medroxyprogesterone as an internal standard. Since radiolabeled C7-oxygenated metabolites were not commercially available, we applied GC-MS for detection. […]

11β-HSD1 [4] = target: T1, 11β-HSD1; experiment: Steady state ratio of cortisone to cortisol in intact HEK-293 cells expressing 11β-HSD1; type: cell-based; details: 16 h, 20 µM inhibitor
Procedure: as §1, §2

11β-HSD1/H6PDH = target: T2, 11β-HSD1/H6PDH (Homo sapiens, UniProt P28845); experiment: Steady state ratio of cortisone to cortisol in intact HEK-293 cells coexpressing 11β-HSD1 and H6PDH; type: cell-based; details: 11β-HSD1/H6PDH cells, 16 h, 20 µM inhibitor, n = 4
T2 construct: expressed in transfected cells; host or cells: HEK-293 (transient co-transfection, Ca2+-phosphate precipitation)
Procedure: as §1
as §2, with “After 16 h, cells were incubated in serum- and steroid-free medium and the conversion of radiolabeled cortisone to cortisol (or the reverse activity) was determined upon incubation for 1 h at 37°C in a total volume of 50 µl containing 200 nM cortisone (or cortisol).” left out

[5] = 11β-HSD1 cells, 200 nM radiolabeled cortisone, n = 4

T1 sequence (P28845 whole entry): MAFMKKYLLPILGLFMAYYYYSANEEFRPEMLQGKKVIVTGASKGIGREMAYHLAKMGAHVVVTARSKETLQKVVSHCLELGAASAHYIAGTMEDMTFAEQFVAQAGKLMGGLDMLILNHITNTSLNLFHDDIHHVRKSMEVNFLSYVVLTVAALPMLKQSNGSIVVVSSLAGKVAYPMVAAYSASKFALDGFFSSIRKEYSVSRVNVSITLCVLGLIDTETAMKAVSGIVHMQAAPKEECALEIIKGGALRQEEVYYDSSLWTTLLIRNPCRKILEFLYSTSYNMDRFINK
T2 sequence (P28845 whole entry): as above

C[C@]12CC[C@H](O)CC1=C[C@H](O)[C@@H]1[C@@H]2CC[C@]2(C)C(=O)CC[C@@H]12 [7β-hydroxydehydroepiandrosterone]
IC50 (11β-HSD1 [1]): 0.54 ± 0.05 µM | IC50 (11β-HSD1 [2]): 7.7 ± 0.8 µM

C1CCc2nnc(C34CC5CC(CC(C5)C3)C4)n2CC1 [T0504, 5H-1,2,4-triazolo(4,3-a)azepine,6,7,8,9-tetrahydro-3-tricyclo(3·3·1·13·7)dec-1-yl]
effect of inhibitor on 11β-HSD1-dependent metabolism of 7α-hydroxy-DHEA (11β-HSD1 [3]; 1 µM 7α-hydroxy-DHEA substrate, 3 h): prevented the formation of 7β-hydroxy-DHEA and 7-keto-DHEA | effect of inhibitor on 11β-HSD1-dependent metabolism of 7-ketopregnenolone and 5α-androstane-3β-ol-7,17-dione (11β-HSD1 [3]; 1 µM substrate, 3 h or 6 h): almost completely abolished

C[C@]12CC[C@H](O)CC1=C[C@@H](O)[C@@H]1[C@@H]2CC[C@]2(C)C(=O)CC[C@@H]12 [7α-hydroxydehydroepiandrosterone]
IC50 (11β-HSD1 [1]): 16 ± 1 µM | IC50 (11β-HSD1 [2]): 45 ± 2 µM

C[C@]12CC[C@H](O)CC1=CC(=O)[C@@H]1[C@@H]2CC[C@]2(C)C(=O)CC[C@@H]12 [7-ketodehydroepiandrosterone]
IC50 (11β-HSD1 [1]): 29 ± 5 µM | IC50 (11β-HSD1 [2]): 0.82 ± 0.07 µM

CC(=O)[C@H]1CC[C@H]2[C@@H]3[C@@H](O)C=C4C[C@@H](O)CC[C@]4(C)[C@H]3CC[C@]12C [7β-hydroxypregnenolone]
IC50 (11β-HSD1 [1]): 1.34 ± 0.49 µM | IC50 (11β-HSD1 [2]): 2.4 ± 0.5 µM

CC(=O)[C@H]1CC[C@H]2[C@@H]3C(=O)C=C4C[C@@H](O)CC[C@]4(C)[C@H]3CC[C@]12C [7-ketopregnenolone]
IC50 (11β-HSD1 [1]): 5.4 ± 0.5 µM | IC50 (11β-HSD1 [2]): 0.68 ± 0.11 µM

C[C@]12CC[C@H](O)C[C@@H]1CC(=O)[C@@H]1[C@@H]2CC[C@]2(C)C(=O)CC[C@@H]12 [5α-androstane-3β-ol-7,17dione, 5α-androstane-3β-ol-7,17-dione]
IC50 (11β-HSD1 [1]): 18 ± 1 µM | IC50 (11β-HSD1 [2]): 0.5 ± 0.11 µM

O=C1CC(c2ccccc2)Oc2ccccc21 (stereo not shown) [Flavanone, flavanone]
cortisol, percentage of total glucocorticoid (oxidation of cortisol to cortisone) (11β-HSD1 [4]; 11β-HSD1 cells, 200 nM radiolabeled cortisol, n = 4): 61.2% | cortisol, percentage of total glucocorticoid (reduction of cortisone to cortisol) (11β-HSD1 [4]; [5]): 74.1% | cortisone, percentage of total glucocorticoid (reduction of cortisone to cortisol) (11β-HSD1 [4]; [5]): 25.9% | effect of inhibitor on the steady state ratio of glucocorticoids (11β-HSD1 [4]; HEK-293 cells with 11β-HSD1 alone or with H6PDH): little or no effect on the steady state ratio of glucocorticoids | cortisol, percentage of total glucocorticoid (oxidation of cortisol to cortisone) (11β-HSD1/H6PDH; 200 nM radiolabeled cortisol): 90.9% | cortisone, percentage of total glucocorticoid (oxidation of cortisol to cortisone) (11β-HSD1/H6PDH; 200 nM radiolabeled cortisol): 9.1% | cortisol, percentage of total glucocorticoid (reduction of cortisone to cortisol) (11β-HSD1/H6PDH; 200 nM radiolabeled cortisone): 91.7% | cortisone, percentage of total glucocorticoid (reduction of cortisone to cortisol) (11β-HSD1/H6PDH; 200 nM radiolabeled cortisone): 8.3%
